From ChEMBL document CHEMBL1201862, “PubChem BioAssay data set” (2004)
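Protocol summary: plate cells (96-well), add compound at 5 concentrations, incubate 48 h, interpolate endpoints linearly. GI50 marks 50% less growth.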 The source made the active and inactive calls. Cut-off read from the data, not from the text of the source: active = GI50 up to about 1.1 µM and inactive = higher.

How the values were obtained:
Assay in all cases: NCI-60 cell line screen, 48 h
786-0 = tested on: 786-0
A498 = tested on: A498
A549 = tested on: A549
ACHN = tested on: ACHN
BT-549 = tested on: BT-549
CAKI-1 = tested on: CAKI-1
CCRF-CEM = tested on: CCRF-CEM
COLO 205 = tested on: COLO 205
DU-145 = tested on: DU-145
EKVX = tested on: EKVX
HCC 2998 = tested on: HCC 2998
HCT-116 = tested on: HCT-116
HCT-15 = tested on: HCT-15
HL-60 = tested on: HL-60
HOP-62 = tested on: HOP-62
HOP-92 = tested on: HOP-92
HT-29 = tested on: HT-29
Hs-578T = tested on: Hs-578T
IGROV-1 = tested on: IGROV-1
K562 = tested on: K562
KM12 = tested on: KM12
LOX IMVI = tested on: LOX IMVI
M14 = tested on: M14
MCF7 = tested on: MCF7
MDA-MB-231 = tested on: MDA-MB-231
MDA-MB-435 = tested on: MDA-MB-435
MDA-N = tested on: MDA-N
MOLT-4 = tested on: MOLT-4
Malme-3M = tested on: Malme-3M
NCI-H226 = tested on: NCI-H226
NCI-H23 = tested on: NCI-H23
NCI-H460 = tested on: NCI-H460
NCI-H522 = tested on: NCI-H522
NCI/ADR-RES = tested on: NCI/ADR-RES
OVCAR-3 = tested on: OVCAR-3
OVCAR-4 = tested on: OVCAR-4
OVCAR-5 = tested on: OVCAR-5
OVCAR-8 = tested on: OVCAR-8
PC-3 = tested on: PC-3
RPMI-8226 = tested on: RPMI-8226
RXF 393 = tested on: RXF 393
SF-268 = tested on: SF-268
SF-295 = tested on: SF-295
SF-539 = tested on: SF-539
SK-MEL-28 = tested on: SK-MEL-28
SK-MEL-2 = tested on: SK-MEL-2
SK-MEL-5 = tested on: SK-MEL-5
SK-OV-3 = tested on: SK-OV-3
SN12C = tested on: SN12C
SNB-19 = tested on: SNB-19
SNB-75 = tested on: SNB-75
SR = tested on: SR
SW-620 = tested on: SW-620
T47D = tested on: T47D
TK-10 = tested on: TK-10
U-251 = tested on: U-251
UACC-257 = tested on: UACC-257
UACC-62 = tested on: UACC-62
UO-31 = tested on: UO-31

SMILES: CCCCCCc1cc2cc(-c3cn4ccccc4n3)c(=O)oc2cc1O
- GI50 (786-0): 2.12 µM (inactive)
- GI50 (A498): 20.1 µM (inactive)
- GI50 (A549): 16.5 µM (inactive)
- GI50 (ACHN): 18 µM (inactive)
- GI50 (BT-549): 10.1 µM (inactive)
- GI50 (CAKI-1): 4.67 µM (inactive)
- GI50 (CCRF-CEM): 19.5 µM (inactive)
- GI50 (COLO 205): > 100 µM (inactive)
- GI50 (DU-145): 5.11 µM (inactive)
- GI50 (EKVX): 18.4 µM (inactive)
- GI50 (HCC 2998): 18.4 µM (inactive)
- GI50 (HCT-116): 4.55 µM (inactive)
- GI50 (HCT-15): 5.66 µM
- GI50 (HL-60): 30.7 µM (inactive)
- GI50 (HOP-62): 11.8 µM (inactive)
- GI50 (HOP-92): 15.5 µM (inactive)
- GI50 (HT-29): > 55.8 µM (inactive)
- GI50 (Hs-578T): 4.14 µM (inactive)
- GI50 (IGROV-1): 11.2 µM (inactive)
- GI50 (K562): 4.61 µM (inactive)
- GI50 (KM12): 16.1 µM (inactive)
- GI50 (LOX IMVI): 4.72 µM (inactive)
- GI50 (M14): 5.52 µM (inactive)
- GI50 (MCF7): 5.43 µM (inactive)
- GI50 (MDA-MB-231): 3.27 µM (inactive)
- GI50 (MDA-MB-435): 5.24 µM (inactive)
- GI50 (MDA-N): 6.17 µM (inactive)
- GI50 (MOLT-4): 7.91 µM (inactive)
- GI50 (Malme-3M): 1.71 µM (inactive)
- GI50 (NCI-H226): 19.1 µM (inactive)
- GI50 (NCI-H23): 5.66 µM (inactive)
- GI50 (NCI-H460): 15 µM (inactive)
- GI50 (NCI-H522): 5.37 µM (inactive)
- GI50 (NCI/ADR-RES): 5.26 µM (inactive)
- GI50 (OVCAR-3): 4.38 µM (inactive)
- GI50 (OVCAR-4): 4.66 µM (inactive)
- GI50 (OVCAR-5): 21.8 µM (inactive)
- GI50 (OVCAR-8): 6.3 µM (inactive)
- GI50 (PC-3): 18.7 µM (inactive)
- GI50 (RPMI-8226): 3.68 µM (inactive)
- GI50 (RXF 393): 4.14 µM (inactive)
- GI50 (SF-268): 2.32 µM (inactive)
- GI50 (SF-295): 15.1 µM (inactive)
- GI50 (SF-539): 2.76 µM (inactive)
- GI50 (SK-MEL-28): 9.14 µM (inactive)
- GI50 (SK-MEL-2): 13.6 µM (inactive)
- GI50 (SK-MEL-5): 8.95 µM (inactive)
- GI50 (SK-OV-3): 13.6 µM (inactive)
- GI50 (SN12C): 5.35 µM (inactive)
- GI50 (SNB-19): 13.2 µM (inactive)
- GI50 (SNB-75): 3.14 µM (inactive)
- GI50 (SR): 5.57 µM (inactive)
- GI50 (SW-620): 9.93 µM (inactive)
- GI50 (T47D): 19.2 µM (inactive)
- GI50 (TK-10): 15.5 µM (inactive)
- GI50 (U-251): 3.56 µM (inactive)
- GI50 (UACC-257): 18.1 µM (inactive)
- GI50 (UACC-62): 8.17 µM (inactive)
- GI50 (UO-31): 8.39 µM (inactive)

SMILES: COc1ccc(CC2c3cc(Oc4cc(CC5c6cc(OC)c(OC)cc6CCN5C)ccc4O)c(OC)cc3CCN2C)cc1 (stereo not drawn)
- GI50 (786-0): 3.02 µM (inactive)
- GI50 (A498): 7.96 µM (inactive)
- GI50 (A549): 6.73 µM (inactive)
- GI50 (ACHN): 7.01 µM (inactive)
- GI50 (BT-549): 6.64 µM (inactive)
- GI50 (CAKI-1): 1.48 µM (inactive)
- GI50 (CCRF-CEM): 0.519 µM (active)
- GI50 (COLO 205): 7.06 µM (inactive)
- GI50 (DU-145): 1.3 µM (inactive)
- GI50 (EKVX): 8.65 µM (inactive)
- GI50 (HCC 2998): 1.14 µM (inactive)
- GI50 (HCT-116): 2.22 µM (inactive)
- GI50 (HCT-15): 2.17 µM
- GI50 (HL-60): 7.78 µM (inactive)
- GI50 (HOP-62): 7.93 µM (inactive)
- GI50 (HOP-92): 7.41 µM (inactive)
- GI50 (HT-29): 2.06 µM (inactive)
- GI50 (Hs-578T): 9.62 µM (inactive)
- GI50 (IGROV-1): 8.59 µM (inactive)
- GI50 (K562): 1.36 µM (inactive)
- GI50 (KM12): 1.77 µM (inactive)
- GI50 (LOX IMVI): 2.55 µM (inactive)
- GI50 (M14): 5.64 µM (inactive)
- GI50 (MCF7): 5.81 µM (inactive)
- GI50 (MDA-MB-231): 7.91 µM (inactive)
- GI50 (MDA-MB-435): 4.14 µM (inactive)
- GI50 (MDA-N): 7.1 µM (inactive)
- GI50 (MOLT-4): 5.52 µM (inactive)
- GI50 (Malme-3M): 10.1 µM (inactive)
- GI50 (NCI-H226): 10.2 µM (inactive)
- GI50 (NCI-H23): 8.18 µM (inactive)
- GI50 (NCI-H460): 6.98 µM (inactive)
- GI50 (NCI-H522): 6.81 µM (inactive)
- GI50 (NCI/ADR-RES): 7.48 µM (inactive)
- GI50 (OVCAR-3): 8.05 µM (inactive)
- GI50 (OVCAR-4): 2.42 µM (inactive)
- GI50 (OVCAR-5): 9.44 µM (inactive)
- GI50 (OVCAR-8): 5.96 µM (inactive)
- GI50 (PC-3): 5.47 µM (inactive)
- GI50 (RPMI-8226): 2.44 µM (inactive)
- GI50 (RXF 393): 5.92 µM (inactive)
- GI50 (SF-268): 9.14 µM (inactive)
- GI50 (SF-295): 8.2 µM (inactive)
- GI50 (SF-539): 8.63 µM (inactive)
- GI50 (SK-MEL-28): 7.8 µM (inactive)
- GI50 (SK-MEL-2): 8.65 µM (inactive)
- GI50 (SK-MEL-5): 7.6 µM (inactive)
- GI50 (SK-OV-3): 9.29 µM (inactive)
- GI50 (SN12C): 8 µM (inactive)
- GI50 (SNB-19): 6.1 µM (inactive)
- GI50 (SNB-75): 8.45 µM (inactive)
- GI50 (SR): 1.43 µM (inactive)
- GI50 (SW-620): 1.66 µM (inactive)
- GI50 (T47D): 6.43 µM (inactive)
- GI50 (TK-10): 3.87 µM (inactive)
- GI50 (U-251): 5.74 µM (inactive)
- GI50 (UACC-257): 8.04 µM (inactive)
- GI50 (UACC-62): 8.65 µM (inactive)
- GI50 (UO-31): 5.25 µM (inactive)
